Source: patent US9416144B2, “Benzoxazine oxazolidinone compound, preparation method and application thereof” (priority 2012, dated 2016)
Converted amounts (≈) assume the structure as drawn. “And” between values parts separate entries of the source, which are not always exact repeats. Equal values may be shown once. Read-outs that look alike come from different tables or passages of the source.

Assays:
[1] = system: Staphylococcus aureus resistant strains (6 strains); assay: In vitro antibacterial activity, MIC by agar double dilution method; format: cell-based; conditions: clinical isolates
Source text: (§1) Experimental method: The agar double dilution method (Antimicrob. Agents and Chemother, 40, 1996, 720-726) was used to determine the minimum inhibitory concentration (MIC) of the series of compounds of the invention and the positive control drug linezolid for the test strains. The multipoint inoculation system (Denley A400) was employed to inoculate the bacteria on the agar plate surface with different concentrations of drugs; inoculation amount on each point was about 10^6 CFU/mL. The plates were incubated at 35° C. for 16 hrs before the results were observed. The lowest drug concentration contained in the Petri dish without bacterial growth was used as the minimum inhibitory concentration (MIC value) of the drug fir that strain.
(§2) Test strains: All the test strains were clinically isolated pathogens which were collected from the Nanjing region, and they were re-identified by routine methods before use. 31 strains of the clinically isolated pathogens were chosen, including 6 strains of Enterococcus, 5 Staphylococcus aureus sensitive strains; 5 Staphylococcus epidermidis sensitive strains; 6 Staphylococcus aureus resistant strains; 5 Staphylococcus epidermidis resistant strains; and 4 Streptococcus pneumoniae resistant strains.
(§3) Compounds to be tested were first added 2 ml of DMSO to help them fully dissolved, then added sterile double distilled water to the desired concentration; to all the Petri dish with added drug liquid were added 20 mL MIT medium which was heat-melted to be liquid-like, to make the final drug concentration in the Petri dish to be 64, 32, 16, 8, 4, 2, 1, 0.5, 0.25, 0.125, 0.0625, and 0.031 μg/mL.
(§4) The positive control group was LZ (linezolid, brand name Zyvox, approved by the FDA in 2000 to be firstly sold in the United States, which is the first and also the only one of oxazolidinone antibacterial drugs allowed to enter clinical application).

[2] = system: Staphylococcus epidermidis resistant strains (5 strains); assay: as above; format: cell-based; conditions: clinical isolates
Source text: as §1, §2, §3, §4

Enterococcus (6 strains) = assay: as above; format: cell-based; conditions: clinical isolates, 35° C. 16 hrs
Source text: as §1, §2, §3, §4

[3] = system: Streptococcus pneumoniae resistant strains (4 strains); assay: as above; format: cell-based; conditions: clinical isolates
Source text: as §1, §2, §3, §4

[4] = system: Staphylococcus aureus sensitive strains (5 strains); assay: as above; format: cell-based; conditions: clinical isolates
Source text: as §1, §2, §3, §4

[5] = system: Staphylococcus epidermidis sensitive strains (5 strains); assay: as above; format: cell-based; conditions: clinical isolates
Source text: as §1, §2, §3, §4

[6] = system: LREFL, linezolid-resistant strain of Enterococcus faecalis (3 strains); assay: In vitro antibacterial activity on linezolid-resistant strains, MIC in MHB broth, 96-well plate; format: cell-based; conditions: LREFL (3 strains)
Experimental: (§5) The stock solution of the subject drugs in DMSO was 10 mg/mL. MHA (agar) and MHB (broth) were both prepared according to the manufacturer's requirements.
(§6) Double dilution of drugs: under aseptic operation, 12.8 μL of liquid drug was added into the first well of a 96-well plate, and then added 27.2 μL DMSO and mixed. The 2nd to 12nd wells were all added 20 μL DMSO. 20 μL was taken from the first well to the second well and mixed up. 20 μL was taken from the second well to the third well, which was repeated till the 11st well, from which was taken 20 μL and discarded. The 12nd well only had 20 μL of DMSO as the growth control. Then 180 μL of sterile water was added to each well and mixed up. The drug used as control was prepared by the same method.
(§7) The solutions with different concentrations of antibacterial drugs after the double dilution and DMSO were added into a sterile 96-well plate separately, 10 μL per well, ready for use.
(§8) Single colonies were picked from the MHA plates into 5 ml of sterile saline and mixed up.
(§9) Light transmittance was adjusted to 80% with a spectrophotometer. After being diluted by 1:200 with MHB, 90 μL of such bacteria liquid was added into each of the wells which already had 10 μL of the drug liquid, mixed up, and incubated in a regular biochemical incubator at 35° C. for 20 hrs before the results were read out. At this time, the drug concentration in the 1st to 12nd wells was 32, 16, 8, 4, 2, 1, 0.5, 0.25, 0.125, 0.0625, 0.03125, 0 μg/mL, respectively.
(§10) Two parallel groups were set up for the same diluted concentration of a drug.
(§11) 4) Results Reading and Judgment: Refer to the Standard Recommended by the CLSI, 2010 Edition.
as §4

[7] = system: LRSE, linezolid-resistant strain of Staphylococcus epidermidis (1 strain); assay: as above; format: cell-based; conditions: LRSE (1 strain)
Experimental: as §5, §6, §7, §8, §9, §10, §11, §4

[8] = system: LRSA, linezolid-resistant strain of Staphylococcus aureus (3 strains); assay: as above; format: cell-based; conditions: LRSA (3 strains)
Experimental: as §5, §6, §7, §8, §9, §10, §11, §4

[9] = system: LREFA, linezolid-resistant strain of Enterococcus faecium (3 strains); assay: as above; format: cell-based; conditions: LREFA (3 strains)
Experimental: as §5, §6, §7, §8, §9, §10, §11, §4

[10] = system: S.a. ATCC 29213 (standard strain of Staphylococcus aureus); assay: as above; format: cell-based; conditions: ATCC29213, 35° C. 20 hrs
Experimental: as §5, §6, §7, §8, §9, §10, §11, §4

[11] = In vivo pharmacokinetic assays in rats (intragastric and intravenous), plasma Compound 14 by LC-MS/MS; set-up: species or system SD rats
Experimental: Two routes of administration (intragastric administration and intravenous injection) were employed.
(§12) Intragastric administration: Four healthy SD rats, male, weight 200-250 g, were dosed 15 mg/kg; the delivery volume was 10 ml/kg, prepared with 0.5% CMC-Na. The rats were fasted for 12 hrs before administration, free water-drinking. 0.3 ml of venous blood was taken from the posterior venous plexus of rats to heparinized tubes at 0.25, 0.5, 1.0, 2.0, 3.0, 4.0, 5.0, 7.0, 9.0, 24, and 48 hrs after administration, centrifuged at 3500 rpm for 10 mins to separate the plasma, which was then stored at −20° C. for test.
as §12, with “Intravenous injection: Two” for “Intragastric administration: Four”, “200˜250” for “200-250”, “5” for “15”, “DMSO, Tween 80 and deionized water.” for “0.5% CMC-Na.”, “5 min, 15 min, and” for “0.25,”
The concentration of Compound 14 in plasma was determined by liquid chromatography tandem mass spectrometry.
In accordance with the above experimental methods, the inventor has determined the in vivo pharmacokinetic properties of phosphate (ester) disodium salt 37 of Compound 14 in rats.

[12] = system: methicillin-resistant Staphylococcus aureus ATCC 33591 (MRSA); assay: In vivo antibacterial activity, mice with systemic infection by MRSA, survival at 48 hours; conditions: female ICR mice, systemic infection (2.35 × 10^7 CFU/mice, intraperitoneal), oral administration 1 hour after infection
Experimental: Test strains: the strain used to infect animals was methicillin-resistant Staphylococcus aureus ATCC 33591 (MRSA).
Experimental animals: female ICR mice, age: 4 to 5 weeks, weight 20 to 22 grams, available from Shanghai Sippr BK Experimental Animal Co., Ltd., qualification certificate No.: 2008001625863.
Experimental method: Mice were randomly divided into groups. There were 4 dosage groups for each subject drug each administration manner: 2.5, 5, 10 and 20 mg/kg, 6 mice for each dosage group. Furthermore, a gastric mucin vehicle group was used as negative control for each administration manner. Mice were intraperitoneally injected with 10^7-10^8 CFU/mL of the bacterial suspension, 0.5 ml/mouse, and at 1 hour after infection the mice were orally administered the corresponding drugs for treatment, dosing volume 0.2 mL/20 g. This research program complied with the provisions and relevant regulations of National Laboratory Animal Management and Welfare.

[13] = In vivo pharmacokinetic assays in rats (intragastric and intravenous), plasma Compound 14 by LC-MS/MS; set-up: species or system SD rats; conditions: for CLz: parameters of 14 in rats after 10 mg/kg Compound 37 intravenous injection

Row | MIC [6] [µg/mL] | MIC [7] [µg/mL] | MIC [8] [µg/mL] | MIC [9] [µg/mL] | MIC [10] [µg/mL] | melting point [°C] | Structure (SMILES) | MIC [1] [µg/mL] | MIC [2] [µg/mL] | MIC (Enterococcus (6 strains)) [µg/mL] | MIC [3] [µg/mL] | MIC [4] [µg/mL] | MIC [5] [µg/mL] | plasma exposure of 14 of the group receiving 37 relative to the group receiving 14 ([11]; intragastric administration, upon measurement normalization) [%] | plasma exposure of intravenous injection relative to that of Compound 14 ([11]; intravenous injection, prodrug 37 vs Compound 14) [times] | oral plasma exposure relative to that of Compound 14 ([11]; oral, prodrug 37 vs Compound 14) [times] | ED50 [12] [mg/kg] | CLz ([13]; average value) [mL/min/kg] | CLz ([13]; individual animals No. 5-7) | plasma exposure of compound 14 of the group receiving 37 relative to the group receiving 14 ([13]; rats, intravenous injection, upon measurement normalization) [%] | ED50 ([12]; Staphylococcus aureus, read-out: ED50) [mg/kg]
1 | 2 to 4 (≈ 5.37 to 10.7 µM) | 4 (≈ 10.7 µM) | 4 (≈ 10.7 µM) | 2 to 4 (≈ 5.37 to 10.7 µM) | 0.5 (≈ 1.34 µM) |  | C[C@@H](O)C(O)c1ccc(-c2ccc3c(c2)OC[C@H]2[C@H](CO)OC(=O)N32)cn1 (stereo partly drawn) [Compound 18, (3R,3aS)-7-(6-((2R)-1,2-dihydroxylpropyl)pyridin-3-yl)-3-(hydroxylmethyl)-3a,4-dihydrobenzo[b]oxazolo[3,4-d][1,4]oxazin-1(3H)-one] | 2 (≈ 5.37 µM) | 1 to 2 (≈ 2.69 to 5.37 µM) | 4 to 8 (≈ 10.7 to 21.5 µM) | 2 to 4 (≈ 5.37 to 10.7 µM) | 2 to 4 (≈ 5.37 to 10.7 µM) | 1 to 2 (≈ 2.69 to 5.37 µM) |  |  |  |  |  |  |  | 
2 | 4 (≈ 9.45 µM) | 4 (≈ 9.45 µM) | 8 (≈ 18.9 µM) | 4 (≈ 9.45 µM) | 0.5 (≈ 1.18 µM) | 313 to 315 | N#Cc1ccc(-c2ccc3c(c2)OC[C@H]2[C@H](COC(=O)CCC(=O)O)OC(=O)N32)cn1 [Compound 34, 4-(((3R,3aS)-7-(6-cyanopyridin-3-yl)-1-oxo-1,3,3a,4-tetrahydrobenzo[b]oxazolo[3,4-d][1,4]oxazin-3-yl)methoxyl)-4-oxobutyric acid] |  |  |  |  |  |  |  |  |  |  |  |  |  | 
3 |  |  |  |  |  |  | CN1CC(c2ccc(-c3ccc4c(c3)OC[C@H]3[C@H](COP(=O)([O-])[O-])OC(=O)N43)cn2)OC1=O.[Na+].[Na+] (stereo partly drawn) [Compound 37] |  |  |  |  |  |  | 157 | 1.34 | 1.5 | 5.00 | 40.3 | 41.3 mL/min/kg and 35.7 mL/min/kg and 44 mL/min/kg | 134 | 

Row | Structure (SMILES) | MIC [6] [µg/mL] | MIC [7] [µg/mL] | MIC [8] [µg/mL] | MIC [9] [µg/mL] | MIC [10] [µg/mL] | melting point [°C] | MIC [1] [µg/mL] | MIC [2] [µg/mL] | MIC (Enterococcus (6 strains)) [µg/mL] | MIC [3] [µg/mL] | MIC [4] [µg/mL] | MIC [5] [µg/mL] | plasma exposure of 14 of the group receiving 37 relative to the group receiving 14 ([11]; intragastric administration, upon measurement normalization) [%] | plasma exposure of intravenous injection relative to that of Compound 14 ([11]; intravenous injection, prodrug 37 vs Compound 14) [times] | oral plasma exposure relative to that of Compound 14 ([11]; oral, prodrug 37 vs Compound 14) [times] | ED50 [12] [mg/kg] | CLz ([13]; average value) [mL/min/kg] | CLz ([13]; individual animals No. 5-7) | plasma exposure of compound 14 of the group receiving 37 relative to the group receiving 14 ([13]; rats, intravenous injection, upon measurement normalization) [%] | ED50 ([12]; Staphylococcus aureus, read-out: ED50) [mg/kg]
4 | CC(=O)NC[C@H]1CN(c2ccc(N3CCOCC3)c(F)c2)C(=O)O1 [LZ, linezolid, reference compound] | 8 to 16 (≈ 23.7 to 47.4 µM) | 16 (≈ 47.4 µM) | > 32 | 8 to 16 (≈ 23.7 to 47.4 µM) | 1 (≈ 2.96 µM) |  | 1 to 2 (≈ 2.96 to 5.93 µM) | 1 to 2 (≈ 2.96 to 5.93 µM) | 1 to 2 (≈ 2.96 to 5.93 µM) | 2 (≈ 5.93 µM) | 1 to 2 (≈ 2.96 to 5.93 µM) | 1 (≈ 2.96 µM) |  |  |  |  |  |  |  | 9.87
